From EP3858336A1, “AMORPHOUS SOLID DISPERSION OF 8-CHLORO-N-(4-(TRIFLUOROMETHOXY)PHENYL)QUINOLIN-2-AMINE” (ABIVAX, priority 2020, dated 2021)

Assays:
[1] = Two-step dissolution / precipitation Fed Human in-vitro model (Fessif); assay type: physicochemical; settings: thermodynamic from solid, final pH 5.0, 60min in FeSSGF pH3.0 + 120min in FeSSIF x3 pH5.0, 37°C, read-out: solubility (HPLC-UV dosage of supernatant), last measurement point
Experimental: (§1) ABX464 in its unique crystalline form and ABX464 :VA64 ASD (prepared according to example 1 above) were tested by using both Fasted and Fed Human in-vitro models (respectively named Fassif and Fessif models). These models simulate respectively fasted and fed state gastrointestinal fluids for dissolution testing.
(§2) For the Fed in-vitro model, 11.4mg of ABX464:VA64 ASD (4.0mg equivalent ABX464) were weighed in 7 different vials. In all vials, 1ml of FeSSGF pH3.0 solution pre-heated at 37°C were added. Suspension were then vortexed at 37°C. After 15min vortex, suspension of the first vial was centrifuged 5min at 18000 rpm and filtered under 0.45µm filter (Millex LCR filter ref. SLCR0.13NK) for HPLC-UV dosage of supernatant. After 30min vortex, suspension of the second vial was centrifuged 5min at 18000 rpm and filtered under 0.45µm filter (Millex LCR filter ref. SLCR0.13NK) for HPLC-UV dosage of supernatant. After 60min vortex, suspension of the third vial was centrifuged 5min at 18000 rpm and filtered under 0.45µm filter (Millex LCR filter ref. SLCR0.13NK) for HPLC-UV dosage of supernatant.
After 60min vortex, 0.5ml of FeSSIF x3 pH5.0 pre-heated at 37°C was added on other 4 vials. Suspension were then vortexed at 37°C. […]

[2] = Two-step dissolution / precipitation Fasted Human in-vitro model (Fassif); assay type: physicochemical; settings: thermodynamic from solid, final pH = 6.5, 30min in FaSSGF pH1.2 + 120min in FaSSIF x2 pH6.5 / Sodium bicarbonate 90/10 v/v, 37°C, read-out: solubility (HPLC-UV dosage of supernatant), last measurement point
Experimental: as §1
as §2, with “the Fasted” for “the Fed”, “in 6” for “in 7”, “of FaSSGF pH1.2” for “of FeSSGF pH3.0”, “supernatant.” for “supernatant. After 60min vortex, suspension of the third vial was centrifuged 5min at 18000 rpm and filtered under 0.45µm filter (Millex LCR filter ref. SLCR0.13NK) for HPLC-UV dosage of supernatant.”
After 30min vortex, 1ml of FaSSIF x2 pH6.5 / Sodium bicarbonate 90/10 v/v pre-heated at 37°C was added on other 4 vials. Suspension were then vortexed at 37°C. After 15min vortex, suspension of the third vial was centrifuged 5min at 18000 rpm and filtered under 0.45µm filter (Millex LCR filter ref. SLCR0.13NK) for HPLC-UV dosage of supernatant. […]

In the case of FC(F)(F)Oc1ccc(Nc2ccc3cccc(Cl)c3n2)cc1 [ABX464, 8-Chloro-N-(4-(trifluoromethoxy)phenyl)quinolin-2-amine], the solubility at 120 min [1] was 508 µg/mL and the solubility at 120 min [2] was 70 µg/mL.
